Measured values reported in patent US8758816B2, “Compositions comprising azelastine and methods of use thereof” (priority 2004, dated 2014).

System: patients with seasonal allergic rhinitis (SAR)
Test: MP 428 study: individual symptom severity scores (runny nose, itchy nose, sneezing, congestion; 0-3 scale)
Format: in vivo, human
Conditions: Intent-to-Treat Population
Protocol: A two-week, randomized, double-blind study, which evaluated the effects of the co-administration of ASTELIN® (azelastine hydrochloride (HCl)) and FLONASE® (fluticasone propionate) compared to either product alone in patients with seasonal allergic rhinitis (SAR) was conducted during the 2006 Texas mountain cedar season. After a 5-day placebo lead-in period, 151 patients with moderate-to-severe allergic rhinitis symptoms were randomized to either: (1) (49 total patients) ASTELIN® (azelastine hydrochloride (HCl)) plus placebo saline nasal spray 2 sprays per nostril, 15 minutes apart, twice daily (AM & PM); (2) (50 total patients) FLONASE® (fluticasone propionate) plus placebo saline nasal spray, 2 sprays per nostril, 15 minutes apart, once daily (AM) and two sessions of placebo saline nasal spray, 2 sprays per nostril, 15 minutes apart (PM); or (3) (52 total patients) the co-administration of ASTELIN® (azelastine hydrochloride (HCl)) 2 sprays per nostril plus FLONASE® (fluticasone propionate) 2 sprays per nostril (AM), 15 minutes apart, and ASTELIN® (azelastine hydrochloride (HCl)) 2 sprays per nostril plus placebo saline nasal spray, 15 minutes apart, (PM) for a 2-week double-blind treatment period.
The primary efficacy variable was the change from baseline in the Total Nasal Symptom Score (TNSS), which comprised sneezing, itchy nose, runny nose, and nasal congestion (individual symptoms scores were assigned a value between 0 and 3, where 0=no symptoms and 3=severe symptoms). This study was not statistically designed to assess the differences between ASTELIN® and FLONASE®.
The results of the clinical trial are summarized and presented in Appendix A hereinbelow and in FIGS. 1-6. […] FIGS. 2-5 show the mean improvement in severity score (0-3 scale) from baseline for the symptoms of runny nose, itchy nose, sneezing and congestion, respectively.

Question: `CCC(=O)O[C@]1(C(=O)SCF)[C@H](C)C[C@H]2[C@@H]3C[C@H](F)C4=CC(=O)C=C[C@]4(C)[C@@]3(F)[C@@H](O)C[C@@]21C` [Fluticasone, fluticasone propionate] was tested. Which “Change from Baseline in AM and PM Combined Nasal Symptom Score: Congestion, LS Mean” value (Day 9) did it give?
Answer: −1.19

Question: And the “Change from Baseline in AM and PM Combined Nasal Symptom Score: Congestion, Mean” value (Day 9)?
Answer: −1.22

Question: And the “Change from Baseline in AM and PM Combined Nasal Symptom Score: Congestion, Median” value (Day 9)?
Answer: −1.27

Question: What about the “Change from Baseline in AM and PM Combined Nasal Symptom Score: Itchy Nose, LS Mean” value (Day 9) of the same compound?
Answer: −1.40

Question: What about the “Change from Baseline in AM and PM Combined Nasal Symptom Score: Itchy Nose, Mean” value (Day 9) of the same compound?
Answer: −1.35

Question: And the “Change from Baseline in AM and PM Combined Nasal Symptom Score: Itchy Nose, Median” value (Day 9)?
Answer: −1.30

Question: What about the “Change from Baseline in AM and PM Combined Nasal Symptom Score: Runny Nose, LS Mean” value (Day 9) of the same compound?
Answer: −1.18

Question: What about the “Change from Baseline in AM and PM Combined Nasal Symptom Score: Runny Nose, Mean” value (Day 9) of the same compound?
Answer: −1.21

Question: What about the “Change from Baseline in AM and PM Combined Nasal Symptom Score: Runny Nose, Median” value (Day 9) of the same compound?
Answer: −1.00

Question: And the “Change from Baseline in AM and PM Combined Nasal Symptom Score: Sneezing, LS Mean” value (Day 9)?
Answer: −1.40

Question: And the “Change from Baseline in AM and PM Combined Nasal Symptom Score: Sneezing, Mean” value (Day 9)?
Answer: −1.29

Question: What about the “Change from Baseline in AM and PM Combined Nasal Symptom Score: Sneezing, Median” value (Day 9) of the same compound?
Answer: −1.40

Question: And the “Percent Change from Baseline in AM and PM Combined Nasal Symptom Score: Congestion, LS Mean” value (“Percent Change … Congestion, LS Mean” below) (Day 9)?
Answer: −22.17%

Question: What about the “Percent Change from Baseline in AM and PM Combined Nasal Symptom Score: Congestion, Mean” value (from here on “Percent Change from Baseline … Congestion, Mean”) (Day 9) of the same compound?
Answer: −22.28%

Question: And the “Percent Change from Baseline in AM and PM Combined Nasal Symptom Score: Congestion, Median” value (from here on “Percent Change … Congestion, Median”) (Day 9)?
Answer: −24.05%

Question: What about the “Percent Change from Baseline in AM and PM Combined Nasal Symptom Score: Itchy Nose, LS Mean” value (from here on “Percent Change … Itchy Nose, LS Mean”) (Day 9) of the same compound?
Answer: −29.96%

Question: And the “Percent Change from Baseline in AM and PM Combined Nasal Symptom Score: Itchy Nose, Mean” value (shortened to “Percent Change from Baseline … Itchy Nose, Mean”) (Day 9)?
Answer: −28.73%

Question: And the “Percent Change from Baseline in AM and PM Combined Nasal Symptom Score: Itchy Nose, Median” value (shortened to “Percent Change … Itchy Nose, Median”) (Day 9)?
Answer: −31.23%

Question: What about the “Percent Change from Baseline in AM and PM Combined Nasal Symptom Score: Runny Nose, LS Mean” value (shortened to “Percent Change … Runny Nose, LS Mean”) (Day 9) of the same compound?
Answer: −18.79%

Question: What about the “Percent Change from Baseline in AM and PM Combined Nasal Symptom Score: Runny Nose, Mean” value (“Percent Change from Baseline … Runny Nose, Mean” below) (Day 9) of the same compound?
Answer: −19.22%

Question: What about the “Percent Change from Baseline in AM and PM Combined Nasal Symptom Score: Runny Nose, Median” value (“Percent Change … Runny Nose, Median” for short) (Day 9) of the same compound?
Answer: −16.67%

Question: What about the “Percent Change from Baseline in AM and PM Combined Nasal Symptom Score: Sneezing, LS Mean” value (from here on “Percent Change from Baseline … Sneezing, LS Mean”) (Day 9) of the same compound?
Answer: −29.73%

Question: What about the “Percent Change from Baseline in AM and PM Combined Nasal Symptom Score: Sneezing, Mean” value (shortened to “Percent Change from Baseline … Sneezing, Mean”) (Day 9) of the same compound?
Answer: −28.22%

Question: What about the “Percent Change from Baseline in AM and PM Combined Nasal Symptom Score: Sneezing, Median” value (“Percent Change from Baseline … Sneezing, Median” for short) (Day 9) of the same compound?
Answer: −32.58%

Question: What about the “Change from Baseline in AM and PM Combined Nasal Symptom Score: Congestion, LS Mean” value (Day 10) of the same compound?
Answer: −1.34

Question: And the “Change from Baseline in AM and PM Combined Nasal Symptom Score: Congestion, Mean” value (Day 10)?
Answer: −1.39

Question: And the “Change from Baseline in AM and PM Combined Nasal Symptom Score: Congestion, Median” value (Day 10)?
Answer: −1.50

Question: What about the “Change from Baseline in AM and PM Combined Nasal Symptom Score: Itchy Nose, LS Mean” value (Day 10) of the same compound?
Answer: −1.21

Question: And the “Change from Baseline in AM and PM Combined Nasal Symptom Score: Itchy Nose, Mean” value (Day 10)?
Answer: −1.19

Question: What about the “Change from Baseline in AM and PM Combined Nasal Symptom Score: Itchy Nose, Median” value (Day 10) of the same compound?
Answer: −1.00

Question: What about the “Change from Baseline in AM and PM Combined Nasal Symptom Score: Runny Nose, LS Mean” value (Day 10) of the same compound?
Answer: −1.52

Question: And the “Change from Baseline in AM and PM Combined Nasal Symptom Score: Runny Nose, Mean” value (Day 10)?
Answer: −1.54

Question: What about the “Change from Baseline in AM and PM Combined Nasal Symptom Score: Runny Nose, Median” value (Day 10) of the same compound?
Answer: −1.45

Question: And the “Change from Baseline in AM and PM Combined Nasal Symptom Score: Sneezing, LS Mean” value (Day 10)?
Answer: −1.57

Question: What about the “Change from Baseline in AM and PM Combined Nasal Symptom Score: Sneezing, Mean” value (Day 10) of the same compound?
Answer: −1.50

Question: And the “Change from Baseline in AM and PM Combined Nasal Symptom Score: Sneezing, Median” value (Day 10)?
Answer: −1.58

Question: What about the “Percent Change … Congestion, LS Mean” value (Day 10) of the same compound?
Answer: −24.97%

Question: And the “Percent Change from Baseline … Congestion, Mean” value (Day 10)?
Answer: −25.31%

Question: And the “Percent Change … Congestion, Median” value (Day 10)?
Answer: −27.27%

Question: And the “Percent Change … Itchy Nose, LS Mean” value (Day 10)?
Answer: −23.04%

Question: And the “Percent Change from Baseline … Itchy Nose, Mean” value (Day 10)?
Answer: −22.79%

Question: What about the “Percent Change … Itchy Nose, Median” value (Day 10) of the same compound?
Answer: −18.99%

Question: What about the “Percent Change … Runny Nose, LS Mean” value (Day 10) of the same compound?
Answer: −26.05%

Question: And the “Percent Change from Baseline … Runny Nose, Mean” value (Day 10)?
Answer: −26.39%

Question: What about the “Percent Change … Runny Nose, Median” value (Day 10) of the same compound?
Answer: −29.13%

Question: And the “Percent Change from Baseline … Sneezing, LS Mean” value (Day 10)?
Answer: −31.65%

Question: And the “Percent Change from Baseline … Sneezing, Mean” value (Day 10)?
Answer: −31.17%

Question: What about the “Percent Change from Baseline … Sneezing, Median” value (Day 10) of the same compound?
Answer: −33.33%

Question: And the “Change from Baseline in AM and PM Combined Nasal Symptom Score: Congestion, LS Mean” value (Day 11)?
Answer: −1.22

Question: What about the “Change from Baseline in AM and PM Combined Nasal Symptom Score: Congestion, Mean” value (Day 11) of the same compound?
Answer: −1.28

Question: What about the “Change from Baseline in AM and PM Combined Nasal Symptom Score: Congestion, Median” value (Day 11) of the same compound?
Answer: −1.27

Question: And the “Change from Baseline in AM and PM Combined Nasal Symptom Score: Itchy Nose, LS Mean” value (Day 11)?
Answer: −1.33

Question: What about the “Change from Baseline in AM and PM Combined Nasal Symptom Score: Itchy Nose, Mean” value (Day 11) of the same compound?
Answer: −1.29

Question: What about the “Change from Baseline in AM and PM Combined Nasal Symptom Score: Itchy Nose, Median” value (Day 11) of the same compound?
Answer: −1.08

Question: What about the “Change from Baseline in AM and PM Combined Nasal Symptom Score: Runny Nose, LS Mean” value (Day 11) of the same compound?
Answer: −1.51

Question: And the “Change from Baseline in AM and PM Combined Nasal Symptom Score: Runny Nose, Mean” value (Day 11)?
Answer: −1.54

Question: And the “Change from Baseline in AM and PM Combined Nasal Symptom Score: Runny Nose, Median” value (Day 11)?
Answer: −1.42

Question: And the “Change from Baseline in AM and PM Combined Nasal Symptom Score: Sneezing, LS Mean” value (Day 11)?
Answer: −1.78

Question: And the “Change from Baseline in AM and PM Combined Nasal Symptom Score: Sneezing, Mean” value (Day 11)?
Answer: −1.66

Question: And the “Change from Baseline in AM and PM Combined Nasal Symptom Score: Sneezing, Median” value (Day 11)?
Answer: −1.83

Question: And the “Percent Change … Congestion, LS Mean” value (Day 11)?
Answer: −22.54%

Question: What about the “Percent Change from Baseline … Congestion, Mean” value (Day 11) of the same compound?
Answer: −23.45%

Question: And the “Percent Change … Congestion, Median” value (Day 11)?
Answer: −24.05%

Question: And the “Percent Change … Itchy Nose, LS Mean” value (Day 11)?
Answer: −26.56%

Question: And the “Percent Change from Baseline … Itchy Nose, Mean” value (Day 11)?
Answer: −25.70%

Question: What about the “Percent Change … Itchy Nose, Median” value (Day 11) of the same compound?
Answer: −27.36%

Question: What about the “Percent Change … Runny Nose, LS Mean” value (Day 11) of the same compound?
Answer: −31.56%

Question: What about the “Percent Change from Baseline … Runny Nose, Mean” value (Day 11) of the same compound?
Answer: −31.74%

Question: What about the “Percent Change … Runny Nose, Median” value (Day 11) of the same compound?
Answer: −33.33%

Question: And the “Percent Change from Baseline … Sneezing, LS Mean” value (Day 11)?
Answer: −35.11%

Question: What about the “Percent Change from Baseline … Sneezing, Mean” value (Day 11) of the same compound?
Answer: −33.52%

Question: And the “Percent Change from Baseline … Sneezing, Median” value (Day 11)?
Answer: −36.05%

Question: And the “Change from Baseline in AM and PM Combined Nasal Symptom Score: Congestion, LS Mean” value (Day 12)?
Answer: −1.41

Question: And the “Change from Baseline in AM and PM Combined Nasal Symptom Score: Congestion, Mean” value (Day 12)?
Answer: −1.49

Question: What about the “Change from Baseline in AM and PM Combined Nasal Symptom Score: Congestion, Median” value (Day 12) of the same compound?
Answer: −1.55

Question: What about the “Change from Baseline in AM and PM Combined Nasal Symptom Score: Itchy Nose, LS Mean” value (Day 12) of the same compound?
Answer: −1.50

Question: And the “Change from Baseline in AM and PM Combined Nasal Symptom Score: Itchy Nose, Mean” value (Day 12)?
Answer: −1.48

Question: And the “Change from Baseline in AM and PM Combined Nasal Symptom Score: Itchy Nose, Median” value (Day 12)?
Answer: −1.17

Question: And the “Change from Baseline in AM and PM Combined Nasal Symptom Score: Runny Nose, LS Mean” value (Day 12)?
Answer: −1.54

Question: And the “Change from Baseline in AM and PM Combined Nasal Symptom Score: Runny Nose, Mean” value (Day 12)?
Answer: −1.58

Question: And the “Change from Baseline in AM and PM Combined Nasal Symptom Score: Runny Nose, Median” value (Day 12)?
Answer: −1.35

Question: What about the “Change from Baseline in AM and PM Combined Nasal Symptom Score: Sneezing, LS Mean” value (Day 12) of the same compound?
Answer: −1.68

Question: What about the “Change from Baseline in AM and PM Combined Nasal Symptom Score: Sneezing, Mean” value (Day 12) of the same compound?
Answer: −1.54

Question: And the “Change from Baseline in AM and PM Combined Nasal Symptom Score: Sneezing, Median” value (Day 12)?
Answer: −1.80
